Assays:
[1] = system: a variety of test species; experiment: Post-emergence herbicidal activity (glasshouse, sprayed after 8 days cultivation, evaluated after 13 days); type: in vivo; parameters: key: 5=total damage to plant; 0=no damage to plant; settings: rate 1000 g/Ha, scale 0-5
Outline: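 Foliar application to 8-day-old plants using a 0.5% Tween 20 acetone/water carrier; phytotoxicity is scored visually from 0 to 5 after 13 days of growth at 24/16 °C day/night.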

[2] = system: a variety of test species; experiment: Pre-emergence herbicidal activity (glasshouse, sprayed one day after sowing, evaluated after 13 days); type: in vivo; parameters: key: 5=total damage to plant; 0=no damage to plant; settings: application pre-emergence, rate 1000 g/Ha, scale 0-5
Outline: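 Damage was rated 13 days after treatment on a 0–5 scale (0 = no damage, 5 = total damage). Pots of seeds in standard soil were sprayed one day after sowing with an aqueous solution from an acetone/water (50:50), 0.5% Tween 20 formulation and kept at 24/16 °C day/night.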

| Structure (SMILES) | melting point | ABUTH (Abutilon theophrasti) damage score, application post-emergence [1] | ALOMY (Alopecurus myosuroides) damage score, application post-emergence [1] | AMARE (Amaranthus retroflexus) damage score, application post-emergence [1] | ECHCG (Echinochloa crus-galli) damage score, application post-emergence [1] | SETFA (Setaria faberi) damage score, application post-emergence [1] | ZEAMX (Zea mays) damage score, application post-emergence [1] | Pre-emergence herbicidal damage score, ABUTH [2] | Pre-emergence herbicidal damage score, ALOMY [2] | Pre-emergence herbicidal damage score, AMARE [2] | Pre-emergence herbicidal damage score, ECHCG [2] | Pre-emergence herbicidal damage score, SETFA [2] | Pre-emergence herbicidal damage score, ZEAMX [2] |
| --- | --- | --- | --- | --- | --- | --- | --- | --- | --- | --- | --- | --- | --- |
| CC1=C(Br)C(=O)N(c2noc(C(C)C)c2C#N)C1O (stereo not shown) [A61] | 127 to 129 °C | 5 | 5 | 5 | 5 | 5 | 3 | 5 | 4 | 5 | 5 | 5 | 3 |
| CCC1=C(Br)C(=O)N(c2noc(C(C)C)c2C#N)C1O (stereo not shown) [A62] | 106 to 108 °C | 5 | 4 | 5 | 5 | 5 | 3 | 5 | 3 | 5 | 4 | 5 | 3 |
| CCC1=C(Cl)C(=O)N(c2noc(C(C)C)c2C#N)C1O (stereo not shown) [A63] | 93 to 95 °C | 5 | 4 | 5 | 5 | 5 | 3 | 5 | 3 | 5 | 5 | 5 | 3 |
| CCC1=C(Cl)C(=O)N(c2cc(C(C)(C)C#N)on2)C1O (stereo not shown) [A64] | 101 to 102 °C | 5 | 5 | 5 | 5 | 5 | 4 | 4 | 3 | 5 | 5 | 5 | 1 |

Continued, in another order:

| melting point | Structure (SMILES) | ABUTH (Abutilon theophrasti) damage score, application post-emergence [1] | ALOMY (Alopecurus myosuroides) damage score, application post-emergence [1] | AMARE (Amaranthus retroflexus) damage score, application post-emergence [1] | ECHCG (Echinochloa crus-galli) damage score, application post-emergence [1] | SETFA (Setaria faberi) damage score, application post-emergence [1] | ZEAMX (Zea mays) damage score, application post-emergence [1] | Pre-emergence herbicidal damage score, ABUTH [2] | Pre-emergence herbicidal damage score, ALOMY [2] | Pre-emergence herbicidal damage score, AMARE [2] | Pre-emergence herbicidal damage score, ECHCG [2] | Pre-emergence herbicidal damage score, SETFA [2] | Pre-emergence herbicidal damage score, ZEAMX [2] |
| --- | --- | --- | --- | --- | --- | --- | --- | --- | --- | --- | --- | --- | --- |
| 99 to 100 °C | CCCC1=C(Cl)C(=O)N(c2cc(C(C)(C)C#N)on2)C1O (stereo not shown) [A65] | 5 | 5 | 5 | 5 | 5 | 4 | 5 | 3 | 5 | 5 | 5 | 2 |
| 150 to 152 °C | C=CC(C)(C)c1onc(N2C(=O)C(Cl)=C(C)C2O)c1C#N (stereo not shown) [A66] | 5 | 5 | 5 | 5 | 5 | 3 | 5 | 3 | 5 | 5 | 4 | 1 |
| 82 to 84 °C | CCCC1=C(Cl)C(=O)N(c2noc(C(C)(C)CC)c2C#N)C1O (stereo not shown) [A68] | 5 | 5 | 5 | 5 | 5 | 1 | 4 | 3 | 3 | 5 | 5 | 1 |
| 95 to 97 °C | CCc1onc(N2C(=O)C(Cl)=C(C)C2O)c1C#N (stereo not shown) [A71] | 5 | 4 | 5 | 5 | 5 | 2 | 4 | 3 | 5 | 4 | 5 | 2 |
| 103 to 105 °C | CC1=C(Cl)C(=O)N(c2cc(C(C)(C)CC#N)on2)C1O (stereo not shown) [A72] | 5 | 5 | 5 | 5 | 5 | 5 | 5 | 4 | 5 | 5 | 5 | 4 |
| 78 to 80 °C | CCCC1=C(Br)C(=O)N(c2noc(C(C)(C)C)c2C#N)C1OC(=O)CC (stereo not shown) [A73] | 5 | 4 | 5 | 5 | 5 | 2 | 5 | 3 | 5 | 4 | 5 | 3 |

— patent US9936701B2, “Herbicidal compounds” (Syngenta Participations AG, priority 2013, dated 2018)
